Measurements from patent US20230233545A1, “TREATMENT OF ATRIAL DYSFUNCTION” (MyoKardia, Inc., priority 2020, published 2023).
Marks after values point to notes of the source that are not given here.

What was measured:
[1] = test system: LV (papillary) skinned muscle fibers; assay: Myocardial force generation, LV skinned muscle fibers (tension-pCa, stiffness); assay type: biochemical, Yucatan mini-pig; settings: at 3 μM
Protocol: (§1) The ability of Compound I to increase myocardial force generation at a given Ca2+ concentration was evaluated using LA (n=6) and LV (n=6) skinned muscle fibers prepared from three different Yucatan mini-pig hearts. In short, as previously described, 3 hearts were harvested, rinsed and shipped in cold cardioplegia solution (Custodiol® HTK; Essential Pharmaceuticals, LLC, NC, USA). Upon receipt, LV (papillary) and LA muscle fibers were dissected at 4° C. in a high-relaxing solution (100 mM BES, 10 mM EGTA, 6.57 mM MgCl2, 10 mM creatine phosphate, 6.22 mM ATP, 41.89 mM Kprop, 2.5 μM pepstatin, 1 μM leupeptin, 50 μM PMSF, 5 mM NaN3, pH 7.0). Fiber bundles were cut and skinned (in a high-relaxing solution containing 1% Triton X-100), fitted with aluminum foil t-clips, and mounted on a mechanics apparatus (Aurora Scientific Inc., ON, Canada). Sarcomere length was set to 2.0 μm. Steady-state isometric tension and stiffness (via a 3% stretch over 250 ms) were measured at increasing concentrations of Ca^2+ (pCa 8.0 to 4.5, adjusted to maintain 180 mM ionic strength) twice, first in the absence (control, 1% DMSO) and then in the presence of Compound I (3 μM, 1% DMSO). In all cases, tension values were normalized to the control maximum isometric tension (at pCa 4.5). Active and passive stiffness were calculated by measuring the slope of the early (Ca^2+ dependent) and late phases, respectively, of the tension response to the brief 3% stretches. Data are presented as means (SD) in text or as mean±SEM in figures; EC50 values (and 95% CIs) were calculated using a four-parameter-fit model (GraphPad Prism, GraphPad Software Inc., CA, USA).

LA skinned muscle fibers = assay: Myocardial force generation, LA skinned muscle fibers (tension-pCa, stiffness); assay type: biochemical, Yucatan mini-pig; settings: at 3 μM
Protocol: as §1, with “In all cases, tension values were normalized to the control maximum isometric tension (at pCa 4.5).” left out, “Data are presented as means (SD) in text or as mean±SEM in figures; EC50 values (and 95% CIs) were calculated using a four-parameter-fit model (GraphPad Prism, GraphPad Software Inc., CA, USA).” left out

[2] = test system: patients with stable HFrEF; assay: Multiple-ascending dose trial, TTE left atrial parameters; assay type: in vivo, human
Source text: This example describes a study to establish the effect on left atrial dimensions and function of single- and multiple-ascending oral doses of Compound I in ambulatory patients with stable heart failure with reduced ejection fraction (HFrEF). Key eligibility criteria included stable HFrEF of ischemic or nonischemic origin, treated with guideline-directed medical therapy (EF initial requirement during Screening was 20 to 45%, and was later changed by amendment to 15 to 35%). Subjects with active ischemia or severe or valvular heart disease were excluded.
The clinical trial enrolled patients who were 18-80 years of age with a clinical diagnosis of stable chronic heart failure with an LV ejection fraction (LVEF) on echocardiography of 45% or less (subsequently amended to ≤35%), treated with guideline-directed medical therapy, and with good quality echocardiogram images. […] Patients with current or recent AF were also excluded. Detailed inclusion and exclusion criteria are shown below.
This was a randomized, parallel-group, DB, placebo-controlled, adaptive design, sequential ascending (oral) multiple-dose study in stable patients with heart failure. Four MAD Cohorts (A, B, C, D) were enrolled (FIG. 7B). An SRC reviewed results from each cohort and determined the dose and confirmed initial sample size for the subsequent cohort. Additionally, the first 3 patients in each cohort had LVEF>25%; the SRC reviewed preliminary safety data from these patients and decided whether to open cohort enrollment to patients with LVEF<25%.
In Cohort A, Compound I 75 mg twice daily (BID) or matching placebo was administered after a 2-hour fast, and food was not allowed for the following 2 hours. In Cohorts B, C and D, patients received Compound I 50, 75 and 100 mg BID, respectively, with food (Table 5).
Patients were admitted to a clinical research unit for 11 days and underwent 3 consecutive study periods: (1) an initial single-blind placebo run-in period of 2 days (Days 1-2); (2) a randomized (1:3) double-blind treatment period in which patients received 7 days of placebo or Compound I, administered orally twice daily (from Day 3 until Day 9); (3) a follow-up period with patients discharged from the unit on D11, and a final follow-up clinic visit conducted on Day 16. During the 11-day confinement, patients were under continuous supervision.
During the study, multiple evaluations were performed that included: serial TTE assessments (11-14 TTEs per patient on Days 1, 2, 3, 4, 7, 9, 10 and 11); PK sampling (PK sample collected concomitantly with every post-randomization echocardiogram); ECGs (on Days 2, 3, 4, 7, 9, 10, 11 and 16); troponin (collected concomitantly with every post-randomization ECG); and safety laboratory assessments. Confined patients underwent continuous telemetry. Holter monitoring was performed in all patients at baseline (Days 1-2) and at the end of double-blind treatment (Days 7-9). Vital signs were collected daily.

[3] = plasma concentrations ≥2000 ng/mL, 'up to', p<0.01

## Cn1cc(S(=O)(=O)[C@@](C)(F)C2CCN(C(=O)Nc3ccon3)CC2)c(C(F)F)n1 [Compound I, (R)-4-(1-((3-(difluoromethyl)-1-methyl-1H-pyrazol-4-yl)sulfonyl)-1-fluoroethyl)-N-(isoxazol-3-yl)piperidine-1-carboxamide]
[1]
  passive stiffness, ventricular skinned fibers: without altering passive stiffness
[1]; pCa 6.0
  increase in LV tension: 43%
[1]; data not shown
  maximal force-generation capability, ventricular skinned fibers: without altering
LA skinned muscle fibers
  passive stiffness, atrial skinned fibers: without altering passive stiffness
LA skinned muscle fibers; data not shown
  maximal force-generation capability, atrial skinned fibers: without altering
[2]; current studies
  safety and tolerability of drug dosages and exposures tested: safe and are well tolerated
[2]; plasma concentration 2000-<3500 ng/mL (medium), SE 0.6, p<0.01
  LAminVi, mean change from baseline (placebo-corrected): −2.1 mL/m^2
[2]; plasma concentration 2000-<3500 ng/mL (n = 26, medium), SE 1.3, p<0.05
  LAEF, mean change from baseline (placebo-corrected): 3.3%
[2]; plasma concentration 2000-<3500 ng/mL, SE 0.7
  LAmaxVi, mean change from baseline (placebo-corrected): −1.1 mL/m^2
[2]; plasma concentration 2000-<3500 ng/mL, SE 1.3
  MR jet area/LA area ratio, mean change from baseline (placebo-corrected): −0.6%
[2]; plasma concentration <2000 ng/mL (n = 30), LS mean difference, SE 1.2, baseline 41 (8)
  LAEF, mean change from baseline (placebo-corrected): 2.1%
[2]; plasma concentration <2000 ng/mL, SE 0.6, baseline 17 (7), p<0.01
  LAminVi, mean change from baseline (placebo-corrected): −1.8** mL/m^2
[2]; plasma concentration <2000 ng/mL, SE 0.6, baseline 28 (9)
  LAmaxVi, mean change from baseline (placebo-corrected): −1.2 mL/m^2
[2]; plasma concentration <2000 ng/mL, SE 1.2, baseline 8.7 (10.5)
  MR jet area/LA area ratio, mean change from baseline (placebo-corrected): 0.3%
[2]; plasma concentration <2000 ng/mL, SE 1.5, baseline 26 (13)
  LAFI, mean change from baseline (placebo-corrected): 2.6
[2]; plasma concentration ≥3500 ng/mL (high), SE 0.7, p<0.01
  LAminVi, mean change from baseline (placebo-corrected): −2.4 mL/m^2
[2]; plasma concentration ≥3500 ng/mL (n = 13, high), SE 1.6, p<0.05
  LAEF, mean change from baseline (placebo-corrected): 3.6%
[2]; plasma concentration ≥3500 ng/mL, SE 0.8
  LAmaxVi, mean change from baseline (placebo-corrected): −1.3 mL/m^2
[2]; plasma concentration ≥3500 ng/mL, SE 1.6, p<0.05
  MR jet area/LA area ratio, mean change from baseline (placebo-corrected): −4.2* %
[2]; [3]
  decrease in LA minimal volume index compared with placebo: up to −2.4 mL/m2
  increase in LA function index compared with placebo: up to 6.1
